For one experiment, the target named is T1, human Y5 receptor (Homo sapiens, UniProt Q15761).
T1 sequence (Q15761 1-445): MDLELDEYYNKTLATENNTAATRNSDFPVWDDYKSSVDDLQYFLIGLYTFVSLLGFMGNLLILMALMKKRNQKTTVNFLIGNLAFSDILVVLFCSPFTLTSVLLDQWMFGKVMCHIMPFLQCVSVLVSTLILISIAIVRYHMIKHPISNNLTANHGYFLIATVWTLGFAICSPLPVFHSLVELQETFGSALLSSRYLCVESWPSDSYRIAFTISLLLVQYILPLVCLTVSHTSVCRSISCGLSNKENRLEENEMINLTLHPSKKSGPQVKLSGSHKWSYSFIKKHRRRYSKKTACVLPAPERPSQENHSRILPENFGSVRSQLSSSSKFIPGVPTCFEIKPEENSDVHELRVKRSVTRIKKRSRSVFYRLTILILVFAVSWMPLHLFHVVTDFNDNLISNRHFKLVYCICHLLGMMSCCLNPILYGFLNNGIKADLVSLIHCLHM
The experiment in a line: NPY receptor functional assay (cAMP, HEK-CNG cells, ACTOne membrane potential dye). It is filed as cell-based. The settings on record: NPY5R pEC50, HEK-CNG cells; standard NPY; species (human or rat) not given. From the text:
(§1) The NPY family of G-protein coupled receptors include Y1, Y2, Y4, and Y5 in humans and rats. […] Following agonist binding, the receptor-G protein complex activates a downstream intracellular signaling cascade which leads to inhibition of adenylate cyclase and a reduction in intracellular cAMP levels.
(§2) HEK-CNG cells stably expressing the human or rat Y1, Y2, Y4 or Y5 receptors (Codex Biosolutions) were used to characterize the functional potency of peptide agonists using the ActOne™ membrane potential dye kit (Codex Biosolutions). In addition to each NPY receptor, each cell line encodes a proprietary exogenous Cyclic Nucleotide-Gated (CNG) channel (Codex Biosolutions). The channel is activated by elevated intracellular levels of cAMP, resulting in ion flux and cell membrane depolarization which can be detected with a calcium sensitive dye or fluorescent membrane potential (MP) dye. Cells were carried in growth media containing 90% DMEM, 10% FBS, 250 mcg/mL G418 and 1 mcg/mL puromycin for no more than 15 passages.
(§3) Prior to testing, cells were counted and dispensed at 14,000 cells per well (Y1, Y4 and Y5) or 28,000 cells per well (Y2) into black 384 well Poly-D-Lysine plates at 20 mcL per well. Covered plates were then incubated at room temperature for 30 minutes followed by an overnight incubation at 37° C. in 5% C02. The following day, media was removed and wells were washed once with 40 mcL Dulbecco's phosphate buffered saline. […] Ten microliters of experimental peptide or peptide standard was added in triplicate to wells and incubated for 50 minutes at room temperature in the dark. Following this incubation step, plates were read again as before (final read).
(§4) NPY receptor activation, leading to a reduction in intracellular cAMP levels, is detected as a decrease in isoproteranol induced fluorescent signal. Peptide standard and experimental values were initially transformed in excel using the formula: final read/initial read. Transformed values were then normalized to receptor specific standard values (1×10−13 M minimum and 1×10−7 M maximum) using the formula: (test value−standard minavg)/(standard maxavg−standard minavg)*100. […] Normalized data was analyzed from triplicate tests and used to estimate the EC50 for each test peptide on each receptor. Data was fit in GraphPad Prism software (v8.2.1) using a 3-parameter logistic curve model: Y=Bottom+(Top−Bottom)/(1+10^((LogEC50−X))). EC50 values were converted to pEC50 values using the formula: pEC50=−Log(EC50).

The target of another experiment is T2, human Y2 receptor (Homo sapiens, UniProt P49146).
T2 sequence (P49146 1-381): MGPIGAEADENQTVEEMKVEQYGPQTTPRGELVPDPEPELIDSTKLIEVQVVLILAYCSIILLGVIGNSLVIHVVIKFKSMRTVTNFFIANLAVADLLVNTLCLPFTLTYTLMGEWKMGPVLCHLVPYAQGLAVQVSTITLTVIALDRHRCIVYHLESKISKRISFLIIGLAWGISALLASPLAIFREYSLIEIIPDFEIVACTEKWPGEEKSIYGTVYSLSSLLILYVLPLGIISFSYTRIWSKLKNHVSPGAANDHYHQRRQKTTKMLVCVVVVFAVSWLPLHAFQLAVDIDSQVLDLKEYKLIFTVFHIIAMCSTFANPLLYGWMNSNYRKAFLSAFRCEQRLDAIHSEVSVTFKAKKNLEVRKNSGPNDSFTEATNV
The description is as above. It is filed as cell-based. Conditions: NPY2R pEC50, HEK-CNG cells; standard PYY(3-36); species (human or rat) not given.
Excerpt: as §1, §2, §3, §4

Starred links: 1 amine or outer side, 2 acyl side, 3 side chain; linkers in the order of their positions; H or OH if unused. Residues, ends and D or L forms follow the SMILES beside them. Groups on a side chain read outwards from the residue. *: point of attachment. C20 diacid = O=C(O)CCCCCCCCCCCCCCCCCCC(=O)*; γGlu = O=C(O)[C@H](CCC(=O)[*:2])N[*:1]

As to `CC(C)C[C@H](NC(=O)[C@H](CC(=O)O)NC(=O)[C@H](CCCCN)NC(=O)[C@H](Cc1ccc(O)cc1)NC(=O)[C@H](Cc1ccc(O)cc1)NC(=O)[C@H](CCCNC(=N)N)NC(=O)[C@H](CC(N)=O)NC(=O)[C@H](Cc1c[nH]c2ccccc12)NC(=O)[C@H](CCC(=O)O)NC(=O)[C@H](CCCCNC(=O)CC[C@H](NC(=O)CC[C@H](NC(=O)CCCCCCCCCCCCCCCCCCC(=O)O)C(=O)O)C(=O)O)NC(=O)[C@@H]1CCCN1C(=O)[C@H](CO)NC(=O)[C@H](C)NC(=O)[C@H](CC(=O)O)NC(=O)[C@H](CCCCN)NC(=O)CNC(=O)[C@@H]1CCCN1C(=O)[C@H](CCCCN)NC(=O)[C@H](CCC(=O)O)NC(=O)[C@@H]1CCCN1C(=O)[C@H](CCCCN)NC(=O)[C@@H]1CCCN1)C(=O)N[C@@H](CCCNC(=N)N)C(=O)N[C@@H](Cc1c[nH]cn1)C(=O)N[C@@H](Cc1ccc(O)cc1)C(=O)N[C@@H](CC(C)C)C(=O)N[C@@H](CC(N)=O)C(=O)N[C@@H](Cc1c[nH]c2ccccc12)C(=O)N[C@@H](CC(C)C)C(=O)N[C@H](C(=O)N[C@@H](CCCNC(=N)N)C(=O)N[C@@H](CCC(N)=O)C(=O)N[C@@H](CCCNC(=N)N)C(=O)N[C@@H](Cc1ccccc1)C(N)=O)[C@@H](C)O` [Compound A70] (H-PKPEKPGKDASPK([γGlu-γGlu-C20 diacid])EWNRYYKDLRHYLNWLTRQRF-NH2; N-terminus assumed), the EC50 at human Y5 receptor was 2 nM; on human Y2 receptor it was 0.0398 nM. The corresponding values for `CC(C)C[C@H](NC(=O)[C@H](CC(=O)O)NC(=O)[C@H](CCCCN)NC(=O)[C@H](Cc1ccc(O)cc1)NC(=O)[C@H](Cc1ccc(O)cc1)NC(=O)[C@H](CCCNC(=N)N)NC(=O)[C@H](CC(N)=O)NC(=O)[C@H](Cc1c[nH]c2ccccc12)NC(=O)[C@H](CCC(=O)O)NC(=O)[C@H](CCCCN)NC(=O)[C@@H]1CCCN1C(=O)[C@H](CO)NC(=O)[C@H](C)NC(=O)[C@H](CC(=O)O)NC(=O)[C@H](CCC(=O)O)NC(=O)CNC(=O)[C@@H]1CCCN1C(=O)[C@H](CCCCNC(=O)CC[C@H](NC(=O)CC[C@H](NC(=O)CCCCCCCCCCCCCCCCCC(=O)O)C(=O)O)C(=O)O)NC(=O)[C@H](CCC(=O)O)NC(=O)[C@@H]1CCCN1C(=O)[C@H](CCCCN)NC(=O)[C@@H]1CCCN1)C(=O)N[C@@H](CCCNC(=N)N)C(=O)N[C@@H](Cc1c[nH]cn1)C(=O)N[C@@H](Cc1ccc(O)cc1)C(=O)N[C@@H](CC(C)C)C(=O)N[C@@H](CC(N)=O)C(=O)N[C@@H](Cc1c[nH]c2ccccc12)C(=O)N[C@@H](CC(C)C)C(=O)N[C@H](C(=O)N[C@@H](CCCNC(=N)N)C(=O)N[C@@H](CCC(N)=O)C(=O)N[C@@H](CCCNC(=N)N)C(=O)N[C@@H](Cc1ccccc1)C(N)=O)[C@@H](C)O` [Compound A36] are 2 nM and 0.0126 nM.

Take `CC(C)C[C@H](NC(=O)[C@H](CC(=O)O)NC(=O)[C@H](CCCCN)NC(=O)[C@H](Cc1ccc(O)cc1)NC(=O)[C@H](Cc1ccc(O)cc1)NC(=O)[C@H](CCCNC(=N)N)NC(=O)[C@H](CO)NC(=O)[C@H](Cc1c[nH]c2ccccc12)NC(=O)[C@H](CCC(=O)O)NC(=O)[C@H](CCC(=O)O)NC(=O)[C@@H]1CCCN1C(=O)[C@H](CO)NC(=O)[C@H](C)NC(=O)[C@H](CC(=O)O)NC(=O)[C@H](CCCCNC(=O)CC[C@H](NC(=O)CC[C@H](NC(=O)CCCCCCCCCCCCCCCCCCC(=O)O)C(=O)O)C(=O)O)NC(=O)CNC(=O)[C@@H]1CCCN1C(=O)[C@H](CCCCN)NC(=O)[C@H](CCC(=O)O)NC(=O)[C@@H]1CCCN1C(=O)[C@H](CCCCN)NC(=O)[C@@H]1CCCN1)C(=O)N[C@@H](CCCNC(=N)N)C(=O)N[C@@H](Cc1c[nH]cn1)C(=O)N[C@@H](Cc1ccc(O)cc1)C(=O)N[C@@H](CC(C)C)C(=O)N[C@@H](CC(N)=O)C(=O)N[C@@H](Cc1c[nH]c2ccccc12)C(=O)N[C@@H](CC(C)C)C(=O)N[C@H](C(=O)N[C@@H](CCCNC(=N)N)C(=O)N[C@@H](CCC(N)=O)C(=O)N[C@@H](CCCNC(=N)N)C(=O)N[C@@H](Cc1ccccc1)C(N)=O)[C@@H](C)O` [Compound A75]: the EC50 on human Y5 receptor was 0.501 nM.

As to `CC(C)C[C@H](NC(=O)[C@H](CC(=O)O)NC(=O)[C@H](CCCCN)NC(=O)[C@H](Cc1ccc(O)cc1)NC(=O)[C@H](Cc1ccc(O)cc1)NC(=O)[C@H](CCCNC(=N)N)NC(=O)[C@H](CC(=O)O)NC(=O)[C@H](Cc1c[nH]c2ccccc12)NC(=O)[C@H](CCC(=O)O)NC(=O)[C@H](CCCCN)NC(=O)[C@@H]1CCCN1C(=O)[C@H](CO)NC(=O)[C@H](C)NC(=O)[C@H](CC(=O)O)NC(=O)[C@H](CCC(=O)O)NC(=O)CNC(=O)[C@@H]1CCCN1C(=O)[C@H](CCCCNC(=O)CC[C@H](NC(=O)CC[C@H](NC(=O)CCCCCCCCCCCCCCCCCCC(=O)O)C(=O)O)C(=O)O)NC(=O)[C@H](CCC(=O)O)NC(=O)[C@@H]1CCCN1C(=O)[C@H](CCCCN)NC(=O)[C@@H]1CCCN1)C(=O)N[C@@H](CCCNC(=N)N)C(=O)N[C@@H](Cc1c[nH]cn1)C(=O)N[C@@H](Cc1ccc(O)cc1)C(=O)N[C@@H](CC(C)C)C(=O)N[C@@H](CC(N)=O)C(=O)N[C@@H](Cc1c[nH]c2ccccc12)C(=O)N[C@@H](CC(C)C)C(=O)N[C@H](C(=O)N[C@@H](CCCNC(=N)N)C(=O)N[C@@H](CCC(N)=O)C(=O)N[C@@H](CCCNC(=N)N)C(=O)N[C@@H](Cc1ccccc1)C(N)=O)[C@@H](C)O` [Compound A78], the EC50 at human Y5 receptor was 3.16 nM; at human Y2 receptor, 0.0631 nM. For `CC(C)C[C@H](NC(=O)[C@H](CC(=O)O)NC(=O)[C@H](CCCCN)NC(=O)[C@H](Cc1ccc(O)cc1)NC(=O)[C@H](Cc1ccc(O)cc1)NC(=O)[C@H](CCCNC(=N)N)NC(=O)[C@H](CC(N)=O)NC(=O)[C@H](Cc1c[nH]c2ccccc12)NC(=O)[C@H](CCC(=O)O)NC(=O)[C@H](CCCCN)NC(=O)[C@@H]1CCCN1C(=O)[C@H](CO)NC(=O)[C@H](C)NC(=O)[C@H](CC(=O)O)NC(=O)[C@H](CCCCN)NC(=O)CNC(=O)[C@@H]1CCCN1C(=O)[C@H](CCCCNC(=O)CC[C@H](NC(=O)CC[C@H](NC(=O)CCCCCCCCCCCCCCCCCCC(=O)O)C(=O)O)C(=O)O)NC(=O)[C@H](CCC(=O)O)NC(=O)[C@@H]1CCCN1C(=O)[C@H](CCCCN)NC(=O)[C@@H]1CCCN1)C(=O)N[C@@H](CCCNC(=N)N)C(=O)N[C@@H](Cc1c[nH]cn1)C(=O)N[C@@H](Cc1ccc(O)cc1)C(=O)N[C@@H](CC(C)C)C(=O)N[C@@H](CC(N)=O)C(=O)N[C@@H](Cc1c[nH]c2ccccc12)C(=O)N[C@@H](CC(C)C)C(=O)N[C@H](C(=O)N[C@@H](CCCNC(=N)N)C(=O)N[C@@H](CCC(N)=O)C(=O)N[C@@H](CCCNC(=N)N)C(=O)N[C@@H](Cc1ccccc1)C(N)=O)[C@@H](C)O` [Compound A37] (H-PKPEK([γGlu-γGlu-C20 diacid])PGKDASPKEWNRYYKDLRHYLNWLTRQRF-NH2; N-terminus assumed), the EC50 on human Y5 receptor is 2.51 nM; at human Y2 receptor it was 0.0158 nM.

These data come from patent publication US12122816B2, “Long acting peptide tyrosine tyrosine (PYY) analogs and methods of use” (Intarcia Therapeutics, Inc., priority 2020, dated 2024).
